We go through 33 compounds from ChEMBL document CHEMBL1146135, “Benzimidazole inhibitors of hepatitis C virus NS5B polymerase: identification of 2-[(4-diarylmethoxy)phenyl]-benzimidazole” (Bioorg Med Chem Lett, 2006).

Each structure is given as a SMILES string. pIC50: −log10 of the molar value. A value given as a limit tells only on which side of the number the result lay.

In test [1] the target is T1, RNA-directed RNA polymerase (Hepacivirus hominis, UniProt O39930). The test is described as follows: Inhibitory activity against HCV 1b NS5B RNA dependent RNA polymerase. On the set-up: species or system Hepatitis C virus subtype 1b.
T1 sequence (O39930 whole entry): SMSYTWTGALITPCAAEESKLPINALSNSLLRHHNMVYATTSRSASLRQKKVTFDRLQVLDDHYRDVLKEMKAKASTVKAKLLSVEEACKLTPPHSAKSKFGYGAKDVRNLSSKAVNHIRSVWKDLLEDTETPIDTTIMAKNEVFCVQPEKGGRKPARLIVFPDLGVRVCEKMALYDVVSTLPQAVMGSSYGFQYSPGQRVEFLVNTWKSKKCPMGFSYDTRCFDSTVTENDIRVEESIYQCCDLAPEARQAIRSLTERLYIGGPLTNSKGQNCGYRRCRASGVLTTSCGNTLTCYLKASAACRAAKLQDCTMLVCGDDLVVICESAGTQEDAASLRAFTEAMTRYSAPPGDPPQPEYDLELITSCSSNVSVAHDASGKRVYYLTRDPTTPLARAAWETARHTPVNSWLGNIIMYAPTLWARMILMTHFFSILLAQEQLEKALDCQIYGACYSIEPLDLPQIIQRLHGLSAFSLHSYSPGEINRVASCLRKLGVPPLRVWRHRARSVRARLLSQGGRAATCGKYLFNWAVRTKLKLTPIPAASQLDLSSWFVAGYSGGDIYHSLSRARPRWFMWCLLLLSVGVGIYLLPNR
The target in test [2] is T1, RNA-directed RNA polymerase. The test is described as follows: Inhibitory activity against HCV 1a NS5B RNA dependent RNA polymerase.
The test system of test [3] is Huh-5-2. The test is described as follows: Cytotoxicity against Huh5-2 cells by MTT assay. In kind it is functional. Conditions: Homo sapiens. Background: Tetrazolium assays rely on reduction of a dye to a coloured formazan, in cell work by metabolically active cells.
Test [4] concerns the target DNA polymerase beta (Homo sapiens, UniProt P06746). The test is described as follows: Inhibitory activity against DNA polymerase beta.
Test [5] addresses T2, DNA polymerase alpha catalytic subunit (Homo sapiens, UniProt P09884).
T2 sequence (P09884 whole entry): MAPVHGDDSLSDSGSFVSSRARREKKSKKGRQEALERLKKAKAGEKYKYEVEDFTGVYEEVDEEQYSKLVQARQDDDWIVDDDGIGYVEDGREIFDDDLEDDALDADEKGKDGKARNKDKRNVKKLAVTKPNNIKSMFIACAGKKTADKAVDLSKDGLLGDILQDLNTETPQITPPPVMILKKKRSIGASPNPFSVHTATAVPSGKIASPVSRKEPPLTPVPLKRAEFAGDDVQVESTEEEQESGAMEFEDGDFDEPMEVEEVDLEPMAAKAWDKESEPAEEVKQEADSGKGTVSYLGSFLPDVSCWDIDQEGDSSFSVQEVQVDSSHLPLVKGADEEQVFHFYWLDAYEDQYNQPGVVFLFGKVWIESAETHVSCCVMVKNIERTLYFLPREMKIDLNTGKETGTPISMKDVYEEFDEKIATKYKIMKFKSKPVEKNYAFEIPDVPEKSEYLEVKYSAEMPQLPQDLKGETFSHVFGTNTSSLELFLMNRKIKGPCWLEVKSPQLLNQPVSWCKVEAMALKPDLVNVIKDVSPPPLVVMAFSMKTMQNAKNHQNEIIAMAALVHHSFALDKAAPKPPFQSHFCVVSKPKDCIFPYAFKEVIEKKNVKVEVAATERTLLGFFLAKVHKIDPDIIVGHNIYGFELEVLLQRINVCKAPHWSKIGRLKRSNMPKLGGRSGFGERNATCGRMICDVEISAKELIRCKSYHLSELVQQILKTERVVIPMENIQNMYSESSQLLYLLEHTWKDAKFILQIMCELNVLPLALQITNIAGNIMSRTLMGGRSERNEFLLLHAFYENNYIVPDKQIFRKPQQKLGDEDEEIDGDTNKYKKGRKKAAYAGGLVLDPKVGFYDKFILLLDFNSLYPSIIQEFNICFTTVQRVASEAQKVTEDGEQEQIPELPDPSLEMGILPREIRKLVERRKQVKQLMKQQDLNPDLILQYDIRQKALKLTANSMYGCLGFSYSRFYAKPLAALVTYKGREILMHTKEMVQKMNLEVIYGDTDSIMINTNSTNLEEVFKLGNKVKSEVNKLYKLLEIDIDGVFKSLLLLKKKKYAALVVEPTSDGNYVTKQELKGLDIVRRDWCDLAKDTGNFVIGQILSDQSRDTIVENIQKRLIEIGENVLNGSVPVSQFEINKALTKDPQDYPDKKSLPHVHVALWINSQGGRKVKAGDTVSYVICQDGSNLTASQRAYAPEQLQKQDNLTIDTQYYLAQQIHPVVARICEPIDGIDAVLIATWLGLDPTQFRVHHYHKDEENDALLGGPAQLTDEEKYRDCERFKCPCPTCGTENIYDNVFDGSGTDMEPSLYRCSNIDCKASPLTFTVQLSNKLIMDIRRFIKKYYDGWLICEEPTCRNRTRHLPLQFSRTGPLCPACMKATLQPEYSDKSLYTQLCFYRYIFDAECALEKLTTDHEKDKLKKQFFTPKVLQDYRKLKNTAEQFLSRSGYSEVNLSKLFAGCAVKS
The test is described as follows: Inhibitory activity against DNA polymerase alpha.

For test [6], the target named is RNA-directed RNA polymerase (Hepacivirus hominis) (UniProt O39930). The test is described as follows: Inhibitory activity against HCV 1b NS5B RNA dependent RNA polymerase at 10 uM. Conditions: Hepatitis C virus subtype 1b.
Chain of RNA-directed RNA polymerase (Hepacivirus hominis) (O39930 1-591): as the sequence (O39930 whole entry) above

Take `O=C(O)c1ccc2c(c1)nc(-c1ccc(OC(c3ccccc3)c3cccnc3)cc1F)n2C1CCCCC1` (stereo not drawn): the pIC50 – broadly, the negative decadic logarithm of the IC50, by convention in mol/L – in test [1] was 6.57; in test [2], 6.10; in test [4], below 5.00; in test [5], below 5.00. Besides, the CC50 – broadly, the concentration giving 50% cytotoxicity – in test [3] was above 50 µM.

With `Cc1ccc(C(Oc2ccc(-c3nc4cc(C(=O)O)ccc4n3C3CCCCC3)cc2)c2ccc(C)cc2)cc1`, the pIC50 in test [1] is 5.92; in test [2] it was 5.51; in test [4], below 5.00; in test [5] it was below 5.00. In test [3], this compound registered a CC50 of 23.5 µM.

As to `O=C(O)c1ccc2c(c1)nc(-c1ccc(OC(c3ccccc3)c3ccccc3)cc1F)n2C1CCCCC1`, the pIC50 is 7.02 in test [1], 6.10 in test [2], below 5.00 in test [4] and below 5.00 in test [5]. In addition, the midpoint of cytotoxicity in test [3], the CC50, lay at 27.3 µM.

As to `O=C(O)c1ccc2c(c1)nc(-c1ccc(OCc3ccncc3)cc1)n2C1CCCC1`, in test [1], the pIC50 was 5.38.

As to `O=C(O)c1ccc2c(c1)nc(-c1ccc(OC(c3ccc(Cl)cc3)c3ccc(Cl)cc3)cc1)n2C1CCCCC1`, the pIC50 in test [1] was 6.03; in test [2], 5.62; in test [4], below 5.00; in test [5], below 5.00. In test [3], this compound gave a CC50 of 23.7 µM.

In the case of `O=C(O)c1ccc2c(c1)nc(-c1ccc(OCC(c3ccccc3)c3ccccc3)cc1)n2C1CCCCC1`, in test [1], the pIC50 was 6.01.

As for `O=C(O)c1ccc2c(c1)nc(-c1ccc(OCc3cccc(-c4ccccc4)c3)cc1)n2C1CCCCC1`, the pIC50 in test [1] was 6.41.

In test [1], `O=C(O)c1ccc2c(c1)nc(-c1ccc(OCc3ccccc3)cc1)n2C1CCCCC1` gave a negative-log IC50 (pIC50) of 5.85.

Consider `O=C(O)c1ccc2c(c1)nc(-c1ccc(OCc3ccc(Cl)cc3)cc1)n2C1CCCC1`, for which the pIC50 in test [1] was 5.92.

Turning to `O=C(O)c1ccc2c(c1)nc(-c1ccc(OC(c3ccc(F)cc3)c3ccc(F)cc3)cc1F)n2C1CCCCC1`, the pIC50 in test [1] was 6.52; in test [2], 6.08; in test [4] it was below 5.00; in test [5], below 5.00. The compound also displayed a CC50 in test [3] of 27.2 µM.

In turn, `O=C(O)c1ccc2c(c1)nc(-c1ccc(OCc3cccc(Cl)c3)cc1)n2C1CCCC1` showed a pIC50 in test [1] of 5.80.

With `O=C(O)c1ccc2c(c1)nc(-c1ccc(Oc3ccccc3-c3ccccc3)cc1)n2C1CCCCC1`, the pIC50 in test [1] is 6.24.

`O=C(O)c1ccc2c(c1)nc(-c1ccc(OCc3ccc(Cl)c(Cl)c3)cc1)n2C1CCCC1` gave a pIC50 in test [1] of 5.89.

In test [1], `O=C(O)c1ccc2c(c1)nc(-c1ccc(OCCc3ccccc3-c3ccccc3)cc1)n2C1CCCCC1` gave a pIC50 of 6.47.

For `O=C(O)c1ccc2c(c1)nc(-c1ccc(OCc3ccccc3)cc1)n2C1CCCC1`, the pIC50 in test [1] is 5.49.

Take `O=C(O)c1ccc2c(c1)nc(-c1ccc(OC(c3ccccc3)c3ccccc3)cc1)n2C1CCCCC1`: the negative logarithm of the IC50 (pIC50) in test [1] was 6.23; in test [2] it was 5.89; in test [4], below 5.00; in test [5] it was below 5.00. Moreover, the midpoint of cytotoxicity in test [3], the CC50, lay at 31.9 µM.

As for `O=C(O)c1ccc2c(c1)nc(-c1ccc(OCc3ccc(C(F)(F)F)cc3)cc1)n2C1CCCC1`, the pIC50 in test [1] was 5.74.

Turning to `O=C(O)c1ccc2c(c1)nc(-c1ccc(OCc3ccccc3)cc1)n2C1CCCCCC1`, the pIC50 in test [1] was 5.74.

For the compound `Cc1ccc(COc2ccc(-c3nc4cc(C(=O)O)ccc4n3C3CCCC3)cc2)cc1`, in test [1], the pIC50 was 5.80.

Consider `CN(C)C(=O)c1ccc(C(Oc2ccc(-c3nc4cc(C(=O)O)ccc4n3C3CCCCC3)c(F)c2)c2ccc(C(=O)N(C)C)cc2)cc1`, for which the pIC50 in test [1] is 6.19; in test [2] it was 6.02; in test [4], below 5.00; in test [5], below 5.00. Also, the CC50 in test [3] is above 50 µM.

As to `O=C(O)c1ccc2c(c1)nc(-c1ccc(OCc3cc(Cl)cc(Cl)c3)cc1)n2C1CCCC1`, in test [1], the pIC50 is 5.77.

For the compound `NC(=O)c1ccc2c(c1)nc(-c1ccc(OCc3ccccc3)cc1)n2C1CCCC1`, the inhibition (usually the drop in the measured response relative to a control, in per cent) in test [6] stood at 47%.

Regarding `O=C(O)c1ccc2c(c1)nc(-c1ccc(OC(c3cccnc3)c3cccnc3)cc1F)n2C1CCCCC1`, the negative logarithm of the IC50 (pIC50) in test [1] was 5.96; in test [2] it was 5.66; in test [4], below 5.00; in test [5], below 5.00. For the same compound, the CC50 in test [3] was above 50 µM.

As for `O=C(O)c1ccc2c(c1)nc(-c1ccc(OC(c3ccc(F)cc3)c3ccc(F)cc3)cc1)n2C1CCCCC1`, the pIC50 was 6.10 in test [1], 5.77 in test [2], below 5.00 in test [4] and below 5.00 in test [5]. This compound gave a CC50 in test [3] of 27.7 µM.

The compound `O=C(O)c1ccc2c(c1)nc(-c1ccc(OCCCc3ccccc3)cc1)n2C1CCCCC1` gave a pIC50 in test [1] of 6.10.

Take `CC(C)(C)c1ccc(COc2ccc(-c3nc4cc(C(=O)O)ccc4n3C3CCCC3)cc2)cc1`: the pIC50 in test [1] is 5.82.

For the compound `O=C(O)c1ccc2c(c1)nc(-c1ccc(OCc3ccccc3Cl)cc1)n2C1CCCC1`, the pIC50 in test [1] was 5.64.

Take `O=C(O)c1ccc(COc2ccc(-c3nc4cc(C(=O)O)ccc4n3C3CCCC3)cc2)cc1`: the pIC50 in test [1] was 5.17.

`COc1ccc(COc2ccc(-c3nc4cc(C(=O)O)ccc4n3C3CCCC3)cc2)cc1` gave a pIC50 in test [1] of 5.68.

Turning to `O=C(O)c1ccc2c(c1)nc(-c1ccc(OC(c3cccc(F)c3)c3cccc(F)c3)cc1)n2C1CCCCC1`, the pIC50 in test [1] was 6.12; in test [2] it was 5.72; in test [4], below 5.00; in test [5] it was below 5.00. The compound further displayed a CC50 in test [3] of 24.4 µM.

In turn, `O=C(O)c1ccc2c(c1)nc(-c1ccc(OCCCCCc3ccccc3)cc1)n2C1CCCCC1` had a pIC50 in test [1] of 6.00.

In test [1], `O=C(O)c1ccc2c(c1)nc(-c1ccc(OCCOc3ccccc3)cc1)n2C1CCCCC1` gave a pIC50 of 5.92.

In test [1], `O=C(O)c1ccc2c(c1)nc(-c1ccc(OCc3ccccc3-c3ccccc3)cc1)n2C1CCCCC1` gave a pIC50 of 6.52.
